Measured values as given in patent publication US6821926B1, “Carbamoyl triazolinone based herbicide” (Bayer Aktiengesellschaft, priority 1999, dated 2004).

Key:
Test in all cases: Pre-emergence/greenhouse herbicidal test, % damage
Assay type in all cases: in vivo
Ipomea = conditions: pre-emergence, after approximately 3 weeks
Protocol: (§1) Customary formulations of the respective active compounds were used. Butafenacil was employed as Inspire® 100 EC, azafenidin as an 80 WG formulation and the compound of the formula (I-1) as a 70 WG formulation. The active compounds were used to prepare an aqueous spray mixture with 0.1% of Renex-36 as additive. Pre-emergence/greenhouse Seeds of the test plants are sown in standard soil. After 24 hours, the test compound or the combination of test compounds, is sprayed onto the soil surface in such a manner as to apply the amount of active compound per unit area desired in each case. The concentration of the spray mixture is chosen so that the desired amounts of active compound desired are applied in 500 l of water per ha. After the spray application, the plant containers are placed in the greenhouse under constant light and temperature conditions. After approximately 3 weeks, the degree of damage of the crop plants is scored in % damage in comparison with the development of the untreated control. The figures denote: 0%=no damage (as untreated control) 100%=Total destruction/damage

Solanum = conditions: after approximately 3 weeks
Protocol: as §1

Alopecurus = conditions: pre-emergence, after approximately 3 weeks
Protocol: as §1

Abutilon = conditions: pre-emergence, after approximately 3 weeks
Protocol: as §1

Setaria = conditions: pre-emergence, after approximately 3 weeks
Protocol: as §1

Xanthium = conditions: pre-emergence, after approximately 3 weeks
Protocol: as §1

Digitaria = conditions: pre-emergence, after approximately 3 weeks
Protocol: as §1

Galium = conditions: pre-emergence, after approximately 3 weeks
Protocol: as §1

Datura = conditions: pre-emergence, after approximately 3 weeks
Protocol: as §1

Cassia = conditions: pre-emergence, after approximately 3 weeks
Protocol: as §1

Question: Which results are given for `C=CCOC(=O)C(C)(C)OC(=O)c1cc(-n2c(=O)cc(C(F)(F)F)n(C)c2=O)ccc1Cl` [Butafenacil, [1,1-dimethyl-2-oxo-2-(2-propenyloxy)]-ethyl 2-chloro-5-(3,6-dihydro-3-methyl-2,6-dioxo-4-trifluoromethyl-1(2H)-pyrimidinyl)-benzoate]?
Answer: Ipomea observed (Ipomea; 0.5 g ai/ha): 0%; Solanum observed (Solanum; pre-emergence, 0,5 g ai/ha): 0%; Solanum observed (Solanum; pre-emergence, 1 g ai/ha): 0%; Solanum observed (Solanum; pre-emergence, 2 g ai/ha): 0%; Alopecurus observed (Alopecurus; 0.5 g ai/ha): 0%; Alopecurus observed (Alopecurus; 2 g ai/ha): 0%; Abutilon observed (Abutilon; 2 g ai/ha): 30%; Setaria observed (Setaria; 0.5 g ai/ha): 0%; Setaria observed (Setaria; 2 g ai/ha): 0%; Xanthium observed (Xanthium; 2 g ai/ha): 0%; Digitaria observed (Digitaria; 0.5 g ai/ha): 20%; Digitaria observed (Digitaria; 1 g ai/ha): 20%; Galium observed (Galium; 1 g ai/ha): 0%; Datura observed (Datura; 2 g ai/ha): 30%; Cassia observed (Cassia; 0.5 g ai/ha): 0%

Question: Which results are given for `CC(C)c1nn(C(=O)NC(C)(C)C)c(=O)n1N` [Compound (I-1), 4-amino-5-(1-methyl-ethyl)-2-(1,1-dimethyl-ethyl-aminocarbonyl)-2,4-dihydro-3H-1,2,4-triazol-3-one]?
Answer: Ipomea observed (Ipomea; 125 g ai/ha): 50%; Solanum observed (Solanum; pre-emergence, 60 g ai/ha): 90%; Alopecurus observed (Alopecurus; 125 g ai/ha): 0%; Abutilon observed (Abutilon; 60 g ai/ha): 50%; Setaria observed (Setaria; 125 g ai/ha): 0%; Xanthium observed (Xanthium; 125 g ai/ha): 90%; Digitaria observed (Digitaria; 125 g ai/ha): 40%; Galium observed (Galium; 125 g ai/ha): 80%; Datura observed (Datura; 60 g ai/ha): 50%; Cassia observed (Cassia; 60 g ai/ha): 30%
